In brackets after ≈: the same amount, converted by molar mass. Bridge positions count the residues as written; N and C are the ends. Square brackets hold non-standard residues; d marks the D form. Peptide text beside a SMILES is read from it. * marks the point of attachment. X1 = CC[C@H](C)CCCCC(=O)*; Dab = NCC[C@H](N)C(=O)O
What was measured:
A. baumannii ATCC 19606 [1] = experiment: microbe, parasite or virus in culture; details: for MIC A. baumannii ATCC 19606 (−): broth microdilution, LB, 1–64 μmol l^−1 two-fold dilutions, 24 h, 37 °C, OD600, mode of three independent replicates
Experimental: (§1) Briefly, 10^5 bacterial cells were incubated with serially diluted EPs (0–64 μmol l^−1) at 37 °C. Bacterial growth was assessed by measuring the optical density at 600 nm in a microplate reader at 1 day post-treatment. […] Secondary structure fractions were calculated using the BeStSel server. fH and fβ stand for helical and β fractions, respectively.

[2] = test system: E. faecium ATCC 700221 (VRE); experiment: microbe, parasite or virus in culture; details: 24 h
Experimental: as §1

K. pneumoniae ATCC 13883 = experiment: microbe, parasite or virus in culture; details: for MIC K. pneumoniae ATCC 13883 (−): broth microdilution, LB, 1–64 μmol l^−1 two-fold dilutions, 24 h, 37 °C, OD600, mode of three independent replicates
Experimental: as §1

S. aureus ATCC 12600 = experiment: microbe, parasite or virus in culture
Experimental: as §1

E. coli ATCC 11775 = experiment: microbe, parasite or virus in culture; details: for MIC E. coli ATCC 11775 (−): broth microdilution, LB, 1–64 μmol l^−1 two-fold dilutions, 24 h, 37 °C, OD600, mode of three independent replicates
Experimental: as §1

E. coli AIC221 = experiment: microbe, parasite or virus in culture; details: for MIC E. coli AIC221 (−): broth microdilution, LB, 1–64 μmol l^−1 two-fold dilutions, 24 h, 37 °C, OD600, mode of three independent replicates
Experimental: as §1

[3] = test system: E. coli AIC222 (colistin-resistant, CRE); experiment: microbe, parasite or virus in culture; details: 24 h; for MIC E. coli AIC222 – CRE (−): colistin-resistant strain, broth microdilution, LB, 1–64 μmol l^−1 two-fold dilutions, 37 °C, OD600, mode of three independent replicates
Experimental: as §1

P. aeruginosa PAO1 = experiment: microbe, parasite or virus in culture; details: for MIC P. aeruginosa PAO1 (−): broth microdilution, LB, 1–64 μmol l^−1 two-fold dilutions, 24 h, 37 °C, OD600, mode of three independent replicates
Experimental: as §1

P. aeruginosa PA14 = experiment: microbe, parasite or virus in culture; details: for MIC P. aeruginosa PA14 (−): broth microdilution, LB, 1–64 μmol l^−1 two-fold dilutions, 24 h, 37 °C, OD600, mode of three independent replicates
Experimental: as §1

[4] = test system: S. aureus ATCC BAA-1556 (MRSA); experiment: microbe, parasite or virus in culture; details: 24 h
Experimental: as §1

[5] = test system: E. faecalis ATCC 700802 (VRE); experiment: Broth microdilution MIC; assay type: cell-based, Enterococcus faecalis; details: vancomycin-resistant strain, LB, 1–64 μmol l^−1 two-fold dilutions, 24 h, 37 °C, OD600, mode of three independent replicates
Experimental: as §1

A. baumannii ATCC 19606 [6] = experiment: Neutropenic deep thigh infection mouse model; assay type: in vivo; details: neutropenic female CD-1 mice, n = 6, single intraperitoneal dose 2 h after infection
Experimental: The limit of detection (LOD) for the CFU quantification is log10CFU = 2. Statistical significance in panels b and d was determined using one-way analysis of variance followed by Dunnett’s test; P values are shown in the graphs. In the violin, the centre line represents […], the box limits the 1st and 3rd quartiles, and the whiskers (minimum and maximum) represent 1.5× the interquartile range. The solid line inside each box represents […] value obtained for each group. Panels a and c created with BioRender.com. Source data
Next, we assessed the efficacy of the same lead archaeasins (archaeasin-2, archaeasin-17 and archaeasin-73) in a murine deep thigh infection model (Fig. 5c), which is widely used to assess the antibiotic potential of compounds. Mice were administered 2 rounds of cyclophosphamide treatment for immunosuppression before the intramuscular infection with 1 × 10^5 cells in 100 μl of A. baumannii. A single dose of each archaeasin (at their MIC) was delivered intraperitoneally (Fig. 5c). […] Four days post-treatment, the bacterial counts remained stable for all peptide treatment conditions and the treatments with polymyxin B and levofloxacin, while the untreated control increased by two orders of magnitude. […]

Structure (SMILES): C[C@H]1COc2c(N3CCN(C)CC3)c(F)cc3c(=O)c(C(=O)O)cn1c23 [Levofloxacin, reference compound]
- MIC (A. baumannii ATCC 19606 [1]; Acinetobacter baumannii, ATCC19606, 24 h, read-out: MIC A. baumannii ATCC 19606 (−)): 1 µM (≈ 0.361 µg/mL)
- MIC A. baumannii ATCC 19606 (−) (A. baumannii ATCC 19606 [1]): 1 µmol/L (≈ 0.361 µg/mL)
- MIC ([2]; Enterococcus faecium, ATCC700221|VRE, read-out: MIC E. faecium ATCC 700221 – VRE (+)): 16 µM (≈ 5.78 µg/mL)
- MIC E. faecium ATCC 700221 – VRE (+) ([2]; vancomycin-resistant strain, broth microdilution, LB, 1–64 μmol l^−1 two-fold dilutions, 37 °C, OD600, mode of three independent replicates): 16 µmol/L (≈ 5.78 µg/mL)
- MIC (K. pneumoniae ATCC 13883; Klebsiella pneumoniae, ATCC13883, 24 h, read-out: MIC K. pneumoniae ATCC 13883 (−)): 1 µM (≈ 0.361 µg/mL)
- MIC K. pneumoniae ATCC 13883 (−) (K. pneumoniae ATCC 13883): 1 µmol/L (≈ 0.361 µg/mL)
- MIC (S. aureus ATCC 12600; Staphylococcus aureus, ATCC12600, 24 h, read-out: MIC S. aureus ATCC 12600 (+)): 2 µM (≈ 0.723 µg/mL)
- MIC S. aureus ATCC 12600 (+) (S. aureus ATCC 12600; broth microdilution, LB, 1–64 μmol l^−1 two-fold dilutions, 24 h, 37 °C, OD600, mode of three independent replicates): 2 µmol/L (≈ 0.723 µg/mL)
- MIC (E. coli ATCC 11775; Escherichia coli, ATCC11775, 24 h, read-out: MIC E. coli ATCC 11775 (−)): 0.125 µM (≈ 0.0452 µg/mL)
- MIC E. coli ATCC 11775 (−) (E. coli ATCC 11775): 0.125 µmol/L (≈ 0.0452 µg/mL)
- MIC (E. coli AIC221; Escherichia coli, AIC221, 24 h, read-out: MIC E. coli AIC221 (−)): 0.125 µM (≈ 0.0452 µg/mL)
- MIC E. coli AIC221 (−) (E. coli AIC221): 0.125 µmol/L (≈ 0.0452 µg/mL)
- MIC ([3]; Escherichia coli, read-out: MIC E. coli AIC222 – CRE (−)): 0.25 µM (≈ 0.0903 µg/mL)
- MIC E. coli AIC222 – CRE (−) [3]: 0.25 µmol/L (≈ 0.0903 µg/mL)
- MIC (P. aeruginosa PAO1; Pseudomonas aeruginosa, PAO1, 24 h, read-out: MIC P. aeruginosa PAO1 (−)): 4 µM (≈ 1.45 µg/mL)
- MIC P. aeruginosa PAO1 (−) (P. aeruginosa PAO1): 4 µmol/L (≈ 1.45 µg/mL)
- MIC (P. aeruginosa PA14; Pseudomonas aeruginosa, PA14, 24 h, read-out: MIC P. aeruginosa PA14 (−)): 0.5 µM (≈ 0.181 µg/mL)
- MIC P. aeruginosa PA14 (−) (P. aeruginosa PA14): 0.5 µmol/L (≈ 0.181 µg/mL)
- MIC ([4]; Staphylococcus aureus, ATCCBAA1556|MRSA, read-out: MIC S. aureus ATCC BAA-1556 – MRSA (+)): 32 µM (≈ 11.6 µg/mL)
- MIC S. aureus ATCC BAA-1556 – MRSA (+) ([4]; methicillin-resistant strain, broth microdilution, LB, 1–64 μmol l^−1 two-fold dilutions, 37 °C, OD600, mode of three independent replicates): 32 µmol/L (≈ 11.6 µg/mL)
- MIC ([5]; Enterococcus faecalis): 2 µM (≈ 0.723 µg/mL)
- MIC E. faecalis ATCC 700802 – VRE (+) [5]: 2 µmol/L (≈ 0.723 µg/mL)
- reduction of bacterial load, deep thigh infection, four days post-treatment (A. baumannii ATCC 19606 [6]): three

Structure (SMILES): CC[C@H](C)CCCCC(=O)N[C@@H](CCN)C(=O)N[C@H](C(=O)N[C@@H](CCN)C(=O)N[C@H]1CCNC(=O)[C@H]([C@@H](C)O)NC(=O)[C@H](CCN)NC(=O)[C@H](CCN)NC(=O)[C@H](CC(C)C)NC(=O)[C@@H](Cc2ccccc2)NC(=O)[C@H](CCN)NC1=O)[C@@H](C)O [Polymyxin B, reference compound] (X1-[Dab]T[Dab][Dab][Dab][dF]L[Dab][Dab]T; lactam 4-C (inferred); N-terminus assumed)
- MIC A. baumannii ATCC 19606 (−) (A. baumannii ATCC 19606 [1]): 0.5 µmol/L (≈ 0.602 µg/mL)
- MIC K. pneumoniae ATCC 13883 (−) (K. pneumoniae ATCC 13883): 8 µmol/L (≈ 9.63 µg/mL)
- MIC E. coli ATCC 11775 (−) (E. coli ATCC 11775): 0.25 µmol/L (≈ 0.301 µg/mL)
- MIC E. coli AIC221 (−) (E. coli AIC221): 0.25 µmol/L (≈ 0.301 µg/mL)
- MIC E. coli AIC222 – CRE (−) [3]: 8 µmol/L (≈ 9.63 µg/mL)
- MIC P. aeruginosa PAO1 (−) (P. aeruginosa PAO1): 4 µmol/L (≈ 4.81 µg/mL)
- MIC P. aeruginosa PA14 (−) (P. aeruginosa PA14): 8 µmol/L (≈ 9.63 µg/mL)
- reduction of bacterial load, deep thigh infection, four days post-treatment (A. baumannii ATCC 19606 [6]): three

From publication PMC12408343, “Deep learning reveals antibiotics in the archaeal proteome” (Nature Microbiology, 2025)
